Laboratory results from PubChem BioAssay (NCI).
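The compound was tested at five concentrations on cells cultured in 96-well plates, with a 48-hour exposure period. At the GI50, growth is halved. The concentration for full growth arrest is given as TGI.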

Tests used:
Assay in all cases: NCI tumour cell line growth inhibition, 48 h
HCT-15 colon = system: HCT-15 colon
SR leukemia = system: SR leukemia
A549 NSCLC = system: A549 NSCLC
ACHN renal = system: ACHN renal
M14 melanoma = system: M14 melanoma
CCRF-CEM leukemia = system: CCRF-CEM leukemia
SF-295 CNS = system: SF-295 CNS
NCI-H522 lung = system: NCI-H522 lung
T-47D breast = system: T-47D breast
SF-268 CNS = system: SF-268 CNS
SK-MEL-5 melanoma = system: SK-MEL-5 melanoma
K-562 leukemia = system: K-562 leukemia
SK-MEL-2 melanoma = system: SK-MEL-2 melanoma
SF-539 CNS = system: SF-539 CNS
HOP-92 NSCLC = system: HOP-92 NSCLC
NCI-H460 lung = system: NCI-H460 lung
UACC-257 melanoma = system: UACC-257 melanoma
HCC-2998 colon = system: HCC-2998 colon
BT-549 breast = system: BT-549 breast
SK-OV-3 ovarian = system: SK-OV-3 ovarian
RPMI-8226 leukemia = system: RPMI-8226 leukemia
IGROV1 ovarian = system: IGROV1 ovarian
TK-10 renal = system: TK-10 renal
NCI-H226 lung = system: NCI-H226 lung
OVCAR-4 ovarian = system: OVCAR-4 ovarian
SW-620 colon = system: SW-620 colon
OVCAR-5 ovarian = system: OVCAR-5 ovarian
MOLT-4 leukemia = system: MOLT-4 leukemia
OVCAR-3 ovarian = system: OVCAR-3 ovarian
CAKI-1 renal = system: CAKI-1 renal
HCT-116 colon = system: HCT-116 colon
HOP-62 NSCLC = system: HOP-62 NSCLC
UO-31 renal = system: UO-31 renal
LOX IMVI melanoma = system: LOX IMVI melanoma
HT29 colon = system: HT29 colon
KM12 colon = system: KM12 colon
PC-3 prostate = system: PC-3 prostate
SNB-19 CNS = system: SNB-19 CNS
A498 renal = system: A498 renal
786-0 renal = system: 786-0 renal
RXF 393 renal = system: RXF 393 renal
MCF7 breast = system: MCF7 breast
OVCAR-8 ovarian = system: OVCAR-8 ovarian
SN12C renal = system: SN12C renal
NCI/ADR-RES ovarian = system: NCI/ADR-RES ovarian
UACC-62 melanoma = system: UACC-62 melanoma
EKVX NSCLC = system: EKVX NSCLC
COLO 205 colon = system: COLO 205 colon
MDA-MB-435 = system: MDA-MB-435
HS 578T breast = system: HS 578T breast
DU-145 prostate = system: DU-145 prostate
MDA-MB-231 breast = system: MDA-MB-231 breast
U251 CNS = system: U251 CNS
SK-MEL-28 melanoma = system: SK-MEL-28 melanoma
HL-60(TB) leukemia = system: HL-60(TB) leukemia
MALME-3M melanoma = system: MALME-3M melanoma
SNB-75 CNS = system: SNB-75 CNS

## CCOP(=O)(OCC)OC[C@]12CC[C@@H](C)[C@H](C)C1C1=CC[C@@H]3[C@@]4(C)CCCNC(C)(C)[C@@H]4CC[C@@]3(C)[C@]1(C)CC2 (some centres undefined)
HCT-15 colon
  GI50: 1.68 µM
  TGI: 3.17 µM
SR leukemia
  GI50: 1.41 µM
  TGI: 3.64 µM
A549 NSCLC
  GI50: 1.78 µM
  TGI: 3.54 µM
ACHN renal
  GI50: 1.72 µM
  TGI: 3.11 µM
M14 melanoma
  GI50: 1.74 µM
  TGI: 3.32 µM
CCRF-CEM leukemia
  GI50: 2.53 µM
  TGI: 8.14 µM
SF-295 CNS
  GI50: 1.78 µM
  TGI: 3.34 µM
NCI-H522 lung
  GI50: 1.84 µM
  TGI: 3.91 µM
T-47D breast
  GI50: 1.6 µM
  TGI: 3.78 µM
SF-268 CNS
  GI50: 2.51 µM
  TGI: 9.24 µM
SK-MEL-5 melanoma
  GI50: 1.69 µM
  TGI: 3.11 µM
K-562 leukemia
  GI50: 1.57 µM
  TGI: 3.32 µM
SK-MEL-2 melanoma
  GI50: 4.8 µM
  TGI: 20.7 µM
SF-539 CNS
  GI50: 1.63 µM
  TGI: 3.04 µM
HOP-92 NSCLC
  GI50: 1.51 µM
  TGI: 4.51 µM
NCI-H460 lung
  GI50: 1.83 µM
  TGI: 3.46 µM
UACC-257 melanoma
  GI50: 2.13 µM
  TGI: 4.95 µM
HCC-2998 colon
  GI50: 1.85 µM
  TGI: 3.42 µM
BT-549 breast
  GI50: 4.49 µM
  TGI: 17.6 µM
SK-OV-3 ovarian
  GI50: 3.27 µM
  TGI: 10.6 µM
RPMI-8226 leukemia
  GI50: 2.2 µM
  TGI: 5.7 µM
IGROV1 ovarian
  GI50: 1.57 µM
  TGI: 3 µM
TK-10 renal
  GI50: 3.49 µM
  TGI: 12.8 µM
NCI-H226 lung
  GI50: 4.98 µM
  TGI: 23.3 µM
OVCAR-4 ovarian
  GI50: 2.27 µM
  TGI: 6.13 µM
SW-620 colon
  GI50: 1.82 µM
  TGI: 3.45 µM
OVCAR-5 ovarian
  GI50: 1.68 µM
  TGI: 3.09 µM
MOLT-4 leukemia
  GI50: 1.52 µM
  TGI: 3.51 µM
OVCAR-3 ovarian
  GI50: 1.72 µM
  TGI: 3.33 µM
CAKI-1 renal
  GI50: 1.44 µM
  TGI: 2.79 µM
HCT-116 colon
  GI50: 1.69 µM
  TGI: 3.21 µM
HOP-62 NSCLC
  GI50: 1.95 µM
  TGI: 3.93 µM
UO-31 renal
  GI50: 1.44 µM
  TGI: 2.93 µM
LOX IMVI melanoma
  GI50: 1.21 µM
  TGI: 2.56 µM
HT29 colon
  GI50: 1.88 µM
  TGI: 4.09 µM
KM12 colon
  GI50: 1.91 µM
  TGI: 3.57 µM
PC-3 prostate
  GI50: 1.57 µM
  TGI: 3.15 µM
SNB-19 CNS
  GI50: 1.69 µM
  TGI: 3.24 µM
A498 renal
  GI50: 5.08 µM
  TGI: 21.8 µM
786-0 renal
  GI50: 1.51 µM
  TGI: 2.98 µM
RXF 393 renal
  GI50: 1.31 µM
  TGI: 2.69 µM
MCF7 breast
  GI50: 1.59 µM
  TGI: 3.17 µM
OVCAR-8 ovarian
  GI50: 1.9 µM
  TGI: 3.96 µM
SN12C renal
  GI50: 1.53 µM
  TGI: 2.94 µM
NCI/ADR-RES ovarian
  GI50: 1.79 µM
  TGI: 3.39 µM
UACC-62 melanoma
  GI50: 1.55 µM
  TGI: 3.11 µM
EKVX NSCLC
  GI50: 1.53 µM
  TGI: 2.96 µM
COLO 205 colon
  GI50: 2.06 µM
  TGI: 4.23 µM
MDA-MB-435
  GI50: 1.76 µM
  TGI: 3.31 µM
HS 578T breast
  GI50: 2.68 µM
  TGI: 8.09 µM
DU-145 prostate
  GI50: 1.94 µM
  TGI: 3.71 µM
MDA-MB-231 breast
  GI50: 1.7 µM
  TGI: 3.19 µM
U251 CNS
  GI50: 1.65 µM
  TGI: 3.35 µM
SK-MEL-28 melanoma
  GI50: 1.69 µM
  TGI: 3.11 µM
HL-60(TB) leukemia
  GI50: 1.67 µM
  TGI: 3.47 µM
MALME-3M melanoma
  GI50: 1.65 µM
  TGI: 3.12 µM
SNB-75 CNS
  GI50: 2.83 µM
  TGI: 15.6 µM
